Data reported in patent US12629364B2, “Methods of treating cancers overexpressing CARM1 with EZH2 inhibitors and platinum-based antineoplastic drugs” (The Wistar Institute of Anatomy and Biology, priority 2016, dated 2026).

Key:
[1] = tested on: A1847 parental and CARM1 knockout cells; test: Epigenetic targeting small molecule set screen (14-day colony formation); assay type: cell-based, Human; details: A1847 parental vs CARM1 knockout; 14 days; normalized to vehicle
Protocol: FIG. 26 illustrates that CARM1-expressing cells are selectively sensitized to EZH2 inhibitors. Equal number of parental control or CARM1 knockout […] cells were plated and treated with each of the 23 individual epigenetic inhibitors for 14 days. The media with the inhibitors was refreshed every 3 days. Cell growth was quantified as integrated density using NIH Image J software. Quantification of the average integrated density graphed as a scatter plot. The X-axis indicates the relative growth of treated CARM1 high parental […] cells compared with DMSO vehicle controls. Y-axis indicates the relative growth of treated CARM1 knockout […] cells compared with DMSO vehicle controls. n=4; and error bars represents SEM. FIG. 27 illustrates a table of EZH2 inhibitors that are selective against CARM1 expression. CARM1-high parental controls and CARM1 knockout […] cells were treated with the indicated concentration of the small molecules in a 14-day colony formation assay. Integrated density for each well was calculated using NIH Image J software. The relative growth of the indicated cells was determined by normalizing to the vehicle control treated cells. n=4 and p-value was calculated using a two-tailed t-test. FIG. 28 illustrates representative images of colonies formed by the cells treated with the indicated inhibitors. GSK126 and UNC1999 representative positive hits from the screen. […] parental and CARM1 knockout cells were plated in 24-well plates and treated with 24 epigenetic compounds. Cell medium was changed every three days with appropriate drug doses for 14 days or until control wells became confluent. Colonies were washed twice with PBS and fixed with 10% methanol and 10% acetic acid in distilled water. Fixed colonies were stained with 0.005% crystal violet. Integrated density was measured using NIH ImageJ software as a surrogate for cell growth.

CARM1-expressing tumors = test: IHC and qRT-PCR of dissected CARM1-expressing tumors; assay type: in vivo, NSG mice; details: IHC
Protocol: FIG. 79 illustrates immunohistochemical analysis for serial sections of tumors dissected from the indicated treatment groups where the tumor sections were stained for H3K27Me3, EZH2, cleaved caspase 3, and Ki67. Scale bar=50 μm.
FIG. 80 illustrates histological scoring (H-score) of the indicated proteins that was calculated for 3 separate fields from 5 tumors from 5 individual mice from each of the indicated groups.
FIG. 81 illustrates the expression of the indicated EZH2/BAF155 target genes that was determined by qRT-PCR in the tumors dissected from the indicated treatment groups.

[2] = tested on: parental and CARM1 knockout A1847 cells, OVCAR10 cells; test: Apoptosis markers (Annexin V, cleaved caspase 3, cleaved PARP); assay type: cell-based, Human; details: 10 μM; 7 days; CARM1-dependent manner
Protocol: FIG. 37 illustrates control parental and CARM1 knockout A1847 cells were treated with 10 μM GSK126 or vehicle for 7 days. Percentage of Annexin V positive apoptotic cells was quantified. *p<0.001 and #p>0.05.
FIG. 38 illustrates levels of cleaved caspase 3 and cleaved PARP in control parental and CARM1 knockout A1847 cells treated with 10 μM GSK126 for 7 days. Expression of β-actin was used as a loading control.
FIG. 39A illustrates the expression of apoptosis markers cleaved in CARM1 high OVCAR10 cells as a result of treatment with GSK126. CARM1 high OVCAR10 cells were treated with 10 μM GSK 126 or vehicle control for 7 days. The expression of apoptosis markers cleaved caspase 3 and cleaved PARP were determined by immunoblot. Expression of β-actin was used as a loading control.
Phosphatidylserine externalization was detected using an Annexin V staining kit (Millipore) following the manufacturer's instructions. Annexin V-positive cells were detected using the Guava System and analyzed with the Guava Nexin software Module (Millipore).

[3] = tested on: tumors formed by CARM1 knockout cells; test: IHC and qRT-PCR of dissected CARM1 knockout tumors; assay type: in vivo, NSG mice
Protocol: FIGS. 82 to 84 illustrate immunohistochemical analysis for serial sections of tumors dissected from mice injected with CARM1 knockout A1847 cells. Serial sections of tumors dissected from the indicated treatment groups described in FIGS. 73 to 75 were subjected to immunohistochemical staining for H3K27Me3, E7H2, cleaved caspase 3, and Ki67 (FIG. 82). Scale bar=50 μm. Histological score (H-score) of the indicated proteins was calculated for 3 separate fields from 5 tumors from 5 individual mice from each of the indicated groups (FIG. 83). Expression of the indicated EZH2/BAF155 target genes was determined by qRT-PCR in the tumors dissected from the indicated treatment groups (FIG. 84).

[4] = tested on: promoter regions of the human DAB2, DLC1, NOXA and TIMP3 genes; test: ChIP-qPCR at target gene promoters; assay type: cell-based; details: A1847 cells
Description: FIGS. 58 to 61 illustrate the results of a ChIP analysis using anti-EZH2 (FIG. 58), anti-H3K27Me3 (FIG. 59), anti-BAF155 (FIG. 60), or anti-RNA Pol II (FIG. 61) antibodies. An isotype matched IgG was used as a negative control. ChIP products were subjected to qPCR analysis using primers specific for the promoter regions of the human DAB2, DLC1, and NOXA genes. Data is representative of three independent experiments. *p<0.001 compared with IgG controls and #p<0.001 compared with parental controls.
FIGS. 62 to 65 illustrate the results of a ChIP analysis in parental control and CARM1 knockout A1847 cells treated with 10 μM GSK 126 or vehicle controls. The cells were subjected to ChIP analysis using anti-EZH2 (FIG. 62), anti-H3K27Me3 (FIG. 63), anti-BAF155 (FIG. 64), or anti-RNA Pol II (FIG. 65) antibodies. An isotype-matched IgG was used as a negative control. ChIP products were subjected to qPCR analysis using primers specific for the promoter regions of the human TIMP3 genes. Mean of three independent experiments with SEM. *p<0.001 compared with controls.
ChIP was performed as described in Tu et al. Developmental Cell (2011) 21:1077-91. The following antibodies were used to perform ChIP: anti-H3K27Me3 (Cell Signaling, Cat. No: 9733), anti-BAF155 (Santa Cruz, Cat. No: sc-9746), anti-RNA polymerase II (Santa Cruz, Cat. No: sc-899) or anti-EZH2 (Cell Signaling, Cat. No: 5246). An isotype matched IgG was used as a negative control. ChIP DNA was analyzed by quantitative PCR against the promoter of the indicated genes using the following primers: DAB2 Forward: 5′-[…]-3′ (SEQ ID NO: 10) and DAB2 Reverse: 5′-[…]-3′ (SEQ ID NO: 11); DLC1 Forward: 5′-[…]-3′ (SEQ ID NO: 12) and DLC1 Reverse: 5′-[…]-3′ (SEQ ID NO: 13); NOXA Forward: 5′-[…]-3′ (SEQ ID NO: 14) and NOXA Reverse: 5′-[…]-3′ (SEQ ID NO: 15); TIMP3 Forward: 5′-[…]-3′ (SEQ ID NO: 16) and TIMP3 Reverse: 5′-[…]-3′ (SEQ ID NO: 17).

SMILES: CC[C@H](C)n1cc(C)c2c(C(=O)NCc3c(C)cc(C)[nH]c3=O)cc(-c3ccc(N4CCNCC4)nc3)cc21 [GSK126, (S)-1-(sec-butyl)-N-((4,6-dimethyl-2-oxo-1,2-dihydropyridin-3-yl)methyl)-3-methyl-6-(6-(piperazin-1-yl)pyridin-3-yl)-1H-indole-4-carboxamide]
- selective growth suppression of CARM1-expressing versus CARM1 KO cells [1]: showed selectivity against CARM1-expressing cells
- H3K27Me3 staining (CARM1-expressing tumors): H3K27Me3 staining was decreased
- markers of apoptosis [2]: markers of apoptosis were induced
- expression of Ki67 ([3]; IHC): did not affect the expression of Ki67 and cleaved caspase 3
- expression of cleaved caspase 3 ([3]; IHC): did not affect the expression of Ki67 and cleaved caspase 3
- expression of EZH2/BAF155 target genes ([3]; qRT-PCR): did not increase the expression
- association of BAF155 and Pol II with the TIMP3 promoter ([4]; 10 μM): CARM1 KO but not EZH2 inhibitor GSK 126 treatment decreased the association
- EZH2's association with its target genes ([4]; DAB2, DLC1, NOXA loci): without affecting EZH2's association with its target genes
- H3K27Me3 occupancy of target genes ([4]; DAB2, DLC1, NOXA loci): decreased H3K27Me3 occupancy
